Key:
Format in all cases: in vivo, mice (C57BL/6)
[1] = system: animal model of insulin-resistant diabetes; experiment: Histopathological change of liver, kidney and pancreas (H&E); settings: for Kidney Medullar apoptosis / Kidney Medullar mineralization / Kidney NHL / Kidney bowman's capsule hyperplasia / Kidney pappillary mineralization / Liver Apoptosis / Liver Cytoplasmic glycogen / Liver Eosinophlic focus of cellular alteration / Liver Mononuclear cell infiltrate / Liver NHL / Pancrease Apoptosis / Pancrease NHL / Pancrease islet degeneration / Pancrease islet hypertrophy / Pancrease islet, mononuclear cell infillitrate: count in group of 10 animals
Method: (§1) STZ (Sigma-aldrich, S0130, 40 mg/kg b.w., in 0.1 M citrate buffer pH 4.5) was intraperitoneally administered to 9-week-old male mice (C57BL/6) once/1 day for 5 days to perform a first disease induction. After 7 weeks of the first induction, a second induction was performed using the same method as the first induction. For 5 days of an STZ administration period for the first induction, 10% sucrose was administered as drinking water. In addition, after 14 days of the second administration, blood sugar was confirmed to confirm the induction rate, and the induced animals were separated into groups. Experimental substances (R)-4-{(R)-1-[7-(3,4,5-trimethoxy-phenyl)-[1,6] naphthyridine-5-yloxy]-ethyl}pyrrolidine-2-one (BI-1002494) and cromolyn (OC-101) were administered orally into the stomach at 10 mL/kg using an oral administration syringe (sonde) before 16:00 daily for 12 weeks at a frequency of 7 days/week at doses shown in Table 1 below, respectively, and dexamethasone was orally administered as a positive control substance.
At the end of the observation period, the mice in each group of Example 1 were confirmed to be dead, and the liver, kidney, and pancreas were extracted and fixed with 10% neutral buffered formalin (NBF) in at least 20 times the tissue volume. The fixed tissue was sectioned to a thickness of approximately 4 mm and then produced into a paraffin block through general tissue processing and embedding processes. Thereafter, the tissue was sectioned to a thickness of 4 μm using a rotary microtome, and then H&E staining was performed, and histopathological changes were observed.

[2] = system: animal model of insulin-resistant diabetes; experiment: Blood biochemistry, automated analyzer, at end of observation; settings: for ALT, Mean / T-CHO, Mean / AST, Mean: 12 weeks, blood
Method: as §1
(§2) After the observation period for mice of each group in Example 1 was terminated, all surviving animals were fasted in the same manner as when measuring blood sugar, and then anesthetized by inhaling isoflurane, and blood was collected from the abdominal vena cava through laparotomy. After the blood collection was completed, the veins and arteries were cut under anesthesia and exsanguinated. The collected blood was left at room temperature for 30 minutes or more and then centrifuged at 3,000 rpm for 20 minutes. Thereafter, glucose, blood urea nitrogen (BUN), and creatinine were analyzed using an automated blood biochemistry analyzer (Hitachi 3100, Hitachi Co. Ltd., Japan). Indoxyl sulfate (a substance that was mainly produced in the intestines to cause kidney damage, and a substance that caused end-stage renal failure by advancing kidney function damage in patients with renal failure during hemodialysis) was analyzed using LC MS/MS. In addition, blood insulin was analyzed according to a method represented by a commercial Mouse Insulin ELISA KIT (#AKRIN-011T, Sibayagi Co. Ltd., Japan).

[3] = system: animal model of insulin-resistant diabetes; experiment: Blood indoxyl sulfate by LC MS/MS; settings: 12 weeks
Method: as §1, §2

[4] = system: animal model of insulin-resistant diabetes; experiment: Blood insulin (Mouse Insulin ELISA) and HOMA-IR
Method: as §1, §2

[5] = Drinking water intake of mice in STZ-induced insulin-resistant diabetes model; design: unit not given here
Method: as §1

[6] = administered groups 12.5-50 mg/kg, Table 8 and FIG. 2
[7] = after induction of diabetic disease, 12.5-50 mg/kg

COc1cc(-c2cc3ncccc3c(O[C@H](C)[C@H]3CNC(=O)C3)n2)cc(OC)c1OC [BI-1002494, (R)-4-{(R)-1-[7-(3,4,5-trimethoxy-phenyl)-[1,6]naphthyridine-5-yloxy]-ethyl}pyrrolidine-2-one]
Kidney Medullar apoptosis ([1]; 12.5 mg/kg (G4)): 3
Kidney Medullar mineralization ([1]; 12.5 mg/kg (G4)): 0
Kidney NHL ([1]; 12.5 mg/kg (G4)): 7
Kidney bowman's capsule hyperplasia ([1]; 12.5 mg/kg (G4)): 0
Kidney pappillary mineralization ([1]; 12.5 mg/kg (G4)): 0
Liver Apoptosis ([1]; 12.5 mg/kg (G4)): 2
Liver Cytoplasmic glycogen ([1]; 12.5 mg/kg (G4)): 1
Liver Eosinophlic focus of cellular alteration ([1]; 12.5 mg/kg (G4)): 0
Liver Mononuclear cell infiltrate ([1]; 12.5 mg/kg (G4)): 1
Liver NHL ([1]; 12.5 mg/kg (G4)): 7
Pancrease Apoptosis ([1]; 12.5 mg/kg (G4)): 1
Pancrease NHL ([1]; 12.5 mg/kg (G4)): 5
Pancrease islet degeneration ([1]; 12.5 mg/kg (G4)): 2
Pancrease islet hypertrophy ([1]; 12.5 mg/kg (G4)): 1
Pancrease islet, mononuclear cell infillitrate ([1]; 12.5 mg/kg (G4)): 1
Kidney Medullar apoptosis ([1]; 25 mg/kg (G5)): 2
Kidney Medullar mineralization ([1]; 25 mg/kg (G5)): 1
Kidney NHL ([1]; 25 mg/kg (G5)): 7
Kidney bowman's capsule hyperplasia ([1]; 25 mg/kg (G5)): 0
Kidney pappillary mineralization ([1]; 25 mg/kg (G5)): 0
Liver Apoptosis ([1]; 25 mg/kg (G5)): 3
Liver Cytoplasmic glycogen ([1]; 25 mg/kg (G5)): 0
Liver Eosinophlic focus of cellular alteration ([1]; 25 mg/kg (G5)): 0
Liver Mononuclear cell infiltrate ([1]; 25 mg/kg (G5)): 2
Liver NHL ([1]; 25 mg/kg (G5)): 7
Pancrease Apoptosis ([1]; 25 mg/kg (G5)): 0
Pancrease NHL ([1]; 25 mg/kg (G5)): 8
Pancrease islet degeneration ([1]; 25 mg/kg (G5)): 1
Pancrease islet hypertrophy ([1]; 25 mg/kg (G5)): 1
Pancrease islet, mononuclear cell infillitrate ([1]; 25 mg/kg (G5)): 0
Kidney Medullar apoptosis ([1]; 50 mg/kg (G6, G7)): 1
Kidney Medullar mineralization ([1]; 50 mg/kg (G6, G7)): 2
Kidney NHL ([1]; 50 mg/kg (G6, G7)): 7
Kidney bowman's capsule hyperplasia ([1]; 50 mg/kg (G6, G7)): 0
Kidney pappillary mineralization ([1]; 50 mg/kg (G6, G7)): 0
Liver Apoptosis ([1]; 50 mg/kg (G6, G7)): 2
Liver Cytoplasmic glycogen ([1]; 50 mg/kg (G6, G7)): 0
Liver Eosinophlic focus of cellular alteration ([1]; 50 mg/kg (G6, G7)): 0
Liver Mononuclear cell infiltrate ([1]; 50 mg/kg (G6, G7)): 1
Liver NHL ([1]; 50 mg/kg (G6, G7)): 8
Pancrease Apoptosis ([1]; 50 mg/kg (G6, G7)): 0
Pancrease NHL ([1]; 50 mg/kg (G6, G7)): 7
Pancrease islet degeneration ([1]; 50 mg/kg (G6, G7)): 1
Pancrease islet hypertrophy ([1]; 50 mg/kg (G6, G7)): 2
Pancrease islet, mononuclear cell infillitrate ([1]; 50 mg/kg (G6, G7)): 0
cytoplasmic glycogen in the liver [1, 6]: reduced in the liver
medullar apoptosis in the kidney [1, 6]: reduced in the kidney in a dose-dependent manner
ALT, Mean ([2]; 12.5 mg/kg/day oral): 45.7 L⁻¹
T-CHO, Mean ([2]; 12.5 mg/kg/day oral): 151.6 dL⁻¹
ALT, Mean ([2]; 25 mg/kg/day oral): 30.9 L⁻¹
AST, Mean ([2]; 25 mg/kg/day oral): 76.8 L⁻¹
T-CHO, Mean ([2]; 25 mg/kg/day oral): 125.0 dL⁻¹
ALT, Mean ([2]; 50 mg/kg/day oral): 45.8 L⁻¹
AST, Mean ([2]; 50 mg/kg/day oral): 83.4 L⁻¹
T-CHO, Mean ([2]; 50 mg/kg/day oral): 138.7 dL⁻¹
dose dependence of GLU reduction ([2]; 12.5, 25, 50 mg/kg): clear dose dependence
blood glucose, summary [2, 7]: decreased in a dose-dependent manner
GLU, statistical comparison ([2]; all administered groups (12.5, 25, 50 mg/kg)): statistically significantly reduced
Indoxyl sulfate, Mean ([3]; 12.5 mg/kg/day oral): 2.2 µg/mL
Indoxyl sulfate, Mean ([3]; 25 mg/kg/day oral): 2.2 µg/mL
Indoxyl sulfate, Mean ([3]; 50 mg/kg/day oral): 1.9 µg/mL
HOMA-IR compared with the disease control group ([4]; 25 mg/kg): statistically significantly reduced
HOMA-IR compared with the disease control group ([4]; 50 mg/kg): statistically significantly reduced
insulin resistance (HOMA-IR), summary [4, 7]: decreased in a dose-dependent manner
drinking water intake, Mean ([5]; 12.5 mg/kg/day oral, week 1): 7.91
drinking water intake, Mean ([5]; 12.5 mg/kg/day oral, week 2): 7.41
drinking water intake, Mean ([5]; 12.5 mg/kg/day oral, week 4): 7.08
drinking water intake, Mean ([5]; 12.5 mg/kg/day oral, week 5): 7.16
drinking water intake, Mean ([5]; 12.5 mg/kg/day oral, week 6): 7.34
drinking water intake, Mean ([5]; 12.5 mg/kg/day oral, week 7): 7.24
drinking water intake, Mean ([5]; 12.5 mg/kg/day oral, week 8): 6.99
drinking water intake, Mean ([5]; 12.5 mg/kg/day oral, week 9): 7.40
drinking water intake, Mean ([5]; 25 mg/kg/day oral, week 0): 7.07
drinking water intake, Mean ([5]; 25 mg/kg/day oral, week 1): 7.62
drinking water intake, Mean ([5]; 25 mg/kg/day oral, week 3): 7.38
drinking water intake, Mean ([5]; 25 mg/kg/day oral, week 4): 6.73
drinking water intake, Mean ([5]; 25 mg/kg/day oral, week 5): 7.19
drinking water intake, Mean ([5]; 25 mg/kg/day oral, week 6): 7.34
drinking water intake, Mean ([5]; 25 mg/kg/day oral, week 7): 7.69
drinking water intake, Mean ([5]; 25 mg/kg/day oral, week 8): 7.43
drinking water intake, Mean ([5]; 25 mg/kg/day oral, week 9): 7.54
drinking water intake, Mean ([5]; 25 mg/kg/day oral, week 10): 7.15
drinking water intake, Mean ([5]; 50 mg/kg/day oral, week 0): 7.27
drinking water intake, Mean ([5]; 50 mg/kg/day oral, week 1): 7.04
drinking water intake, Mean ([5]; 50 mg/kg/day oral, week 3): 6.95
drinking water intake, Mean ([5]; 50 mg/kg/day oral, week 4): 7.13
drinking water intake, Mean ([5]; 50 mg/kg/day oral, week 5): 6.48
drinking water intake, Mean ([5]; 50 mg/kg/day oral, week 9): 6.51
drinking water intake, Mean ([5]; 50 mg/kg/day oral, week 10): 6.22

From US20240207236A1, “COMPOUND FOR PREVENTING OR TREATING DIABETES” (ONCOCROSS CO., LTD., priority 2021, published 2024)
